From patent publication US5552267A, “Solution for prolonged organ preservation” (priority 1994, dated 1996)

How the values were obtained:
heart [1] = assay: heterotopic rat cardiac transplant, cAMP series, graft survival/score; assay type: in vivo, rat (male Sprague-Dawley)
Source text: Preservation solutions included lactated Ringer's (LR) solution Baxter, Edison, N.J.), or LR supplemented with rolipram ZK 62 711, Schering AG, Berlin, Germany), indolidan LY195115, Lilly Research Laboratories, Indianapolis, Ind.), sodium butyrate, 8-bromoadenosine, 8-bromoadenosine 3',5'monophosphate (8-Br-cAMP; Sigma Chemical Co., St. Louis, Mo.), the Rp -isomer of adenosine 3',5'monophosphorothioate (Rp -cAMPS; Biolog, La Jolla, Calif.), the Sp isomer of adenosine 3',5'monophosphorothioate (Sp -cAMPS; Biolog), and N^6,O^2' -dibutyryl adenosine 3',5'monophosphate sodium (db-cAMP; Aldrich, Milwaukee, Wis.). Components were combined within 4 hrs of donor cardiectomy, and preservation solutions were kept at 4° C. University of Wisconsin solution (UW)(2-4 was purchased from Dupont (Wilmington, Del.).
Donor Cardiectomy. Male Sprague-Dawley rats (350-450 grams, Camm Research, Wayne, N.J.) were anesthetized, heparinized (1000 units of heparin given intravenously), and the donor heart removed in the following manner; a midline incision was performed, followed by rapid cardioplegic arrest with 5 ml of cold (4° C.), high potassium solution (NACl, 0.9%, and KCl, 40 mEq/L). The heart was maintained at 4° C. throughout the harvest procedure by the application of a cold saline soaked gauze over its surface. […] The aortic root was flushed with ≈15 ml of the cold preservation solution until the coronary arteries became visibly clear, and the heart remained in the cold storage solution for the indicated duration until the time of transplantation.
Heterotopic Transplant. The same breed/size of rat was used, and similarly anesthetized, but not given heparin. A midline abdominal incision was made, and the infrarenal aorta and vena cava were occluded with a side-biting vascular clamp and longitudinal incisions were made in each vessel. The donor heart was removed from the preservation solution and kept moist with saline-soaked gauze. […] Blood flow was restored to the graft (by removal of the clamp) exactly one hour after removal from the cold preservation solution. […] Ten minutes after removal of the cross-clamp, an electrocardiogram was taken (Grass Polygraph, Quincy, Mass.) and the heart was judged by the same blinded investigators throughout based on the presence/absence of regular contractions and a transplant score (0-5, worst-best, respectively) employing the following criteria: contraction (poor=0, average=1, vigorous=2), tissue turgor (hard=0, average=1, soft=2), and color (dusky=0, pink=1). […] The heterotopic cardiac transplant experiments performed in these studies were done by a single surgeon after establishment of this model and acquisition of surgical expertise, with control and experimental groups interspersed throughout the study period to prevent a time-dependent bias pertaining to surgical skills.
Statistics. Graft survival data and transplant scores were analyzed using the Kruskal-Wallis non-parametric analysis of variance (38). Comparisons of individual treatments were performed using the procedure described by Dunn (39). In addition, the effect of db-cAMP on the time-course of graft failure was quantified by multivariate logistic regression. Graft myeloperoxidase data, microsphere data, and cAMP/adenylate cyclase/phosphodiesterase data from experiments with cultured vascular smooth muscle cells were analyzed by t-tests when 2 treatments were performed or by analysis of variance when 3 or more treatments were performed. In the latter case, post-hoc comparison of treatment groups were tested using Tukey's procedure. Values are expressed as means ±SEM, with a p <0.05 considered statistically significant.

heart [2] = assay: heterotopic rat heart transplant model, First Series Experiment One (heart survival rate, heart transplant index); assay type: in vivo, rat (male Sprague-Dawley); conditions: in place of db cAMP, 24 hr
pulmonary vasculature = conditions: in vivo; cited from earlier work
[3] = tested on: cardiac graft vasculature; assay: graft blood flow by latex microspheres, cAMP series; assay type: in vivo, rat
Protocol: Perfusion of Donor Graft. Ten minutes after restoration of blood flow, a suspension of latex microspheres (0.5 ml of 10 μm diameter microspheres at a final concentration in 10^6 /ml in phosphate-buffered saline containing Tween 80, 0.05%) (E-Z Trac, Los Angeles, Calif.) was injected over 30 seconds into the donor aortic root. After one minute, the heart was rapidly excised, rinsed free of intracavitary and surface blood, and the atria and great vessels were removed. The ventricles were cut into pieces, each piece weighed, and then digested by alkaline hydrolysis, centrifuged and washed according to the manufacturer's instructions. Beads in each piece were then counted in an Improved Neubauer hemocytometer VWR Scientific, Piscataway, N.J.). Results are expressed as number of spheres per (40X) field per gram of ventricle. A minimum of ten fields were counted and the mean ± SEM is reported.

[4] = in vitro toxicity to endothelial cells; assay type: cell-based; conditions: data not shown, read-out: concentration toxic to endothelial cells
[5] = tested on: neutrophil infiltration of cardiac graft; assay: graft myeloperoxidase activity/histology (leukocyte infiltration), cAMP series; assay type: in vivo, rat
Protocol: Myeloperoxidase assay/histology. Ten minutes following restoration of blood flow, transplanted hearts were excised and the aortic root was flushed for 5 minutes (rate of 2 ml/minute controlled by roller pump) with normal saline (Baxter, Edison, N.J.), the atria and great vessels were removed, and intracavitary blood was evacuated. Remaining ventricular pieces were weighed, and homogenized in phosphate buffer (50 mM; pH 7.4, 5 ml/gm of tissue) containing hexadecyltrimethylammonium bromide (0.5%; HTAB, [Sigma]) and frozen at -80° C. The myeloperoxidase assay was performed, as described (29), by thawing the sample, centrifuging at 40,000 g for 10 minutes at 4° C., and decanting the supernatant, which was assayed for myeloperoxidase activity using standard chromogenic spectrophotometric technique: test sample (0.1 ml) was added to phosphate buffer (50 mM; pH 6.0) containing O-dianisidine dihydrochloride (Sigma), hydrogen peroxide (0.0005%), and change in absorbance at 460 nm was measured over 5 min (increase in OD was linear over this time interval). For histologic study, cardiac graft samples were fixed in an ascending series of aldehydes, embedded, sectioned, and stained with hematoxylin and eosin.

lung [6] = conditions: in vivo; cited from earlier work
lung [7] = assay: orthotopic rat left lung transplantation, nitroglycerin series; assay type: in vivo, rat (male Lewis)
[8] = tested on: myocardial infarct / neutrophils; conditions: canine ischemia/reperfusion; cited from earlier work
[9] = tested on: nitric oxide production in heart; assay: direct measurement of coronary vascular and endocardial NO with porphyrinic microsensor; parameters: species or system rat; conditions: transplanted hearts
Protocol: Direct measurement of coronary vascular and endocardial nitric oxide synthesis were made with a porphyrinic microsensor^13 using differential pulse voltammetry or amperometry. Rat hearts were explanted and preserved as described above, and studied fresh (no preservation/transplantation) or after hypothermic preservation in lactated Ringer's (LR) solution, heterotopic transplantation, and 10 minutes of reperfusion. The coronary vasculature was flushed free of blood with LR followed by 4 ml of LR supplemented with L-Arg (2 mM) and bradykinin ([…], Sigma), which was recycled (1 ml/min) through the coronary vasculature by flushing down the cross-clamped aortic root. Aliquots of perfusate were immediately transferred to an anaerobic environment for measurements and compared to an aqueous nitric oxide reference. Differential pulse voltammograms were obtained using a sensor (working electrode), saturated calomel electrode reference, and platinum wire-auxiliary electrode, with a pulse amplitude of 40 mV. Endocardial NO was measured by implanting the sensor in the septal endocardium of a freshly explanted or preserved/transplanted heart, and after the baseline stabilization, […] bradykinin was applied and NO release continuously monitored by amperometry at constant potential of 0.63 V.

HUVECs / platelets = assay: NO by inhibition of thrombin-induced platelet aggregation and serotonin release by ECs; assay type: cell-based, human; conditions: normoxic ECs (hemoglobin); hypoxia 16 h + reoxygenated ECs (SOD, BHT)
Protocol: Radiolabelled serotonin (^14 C-5-hydroxytryptamine, Amersham, Arlington Heights, Ill.) was incorporated into the platelets by adding 0.5 μCi during the blood collection process. Inhibition of cyclooxygenase was confirmed by the absence of aggregation to 1 mM sodium arachidonate.
HUVECs from fresh human umbilical veins were isolated and grown according to previously published methods^12, and used between the 3rd and 4th passages. HUVEC cyclooxygenase was inhibited with acetylsalicylic acid (1 mmol/L in M199 medium, incubated for 30 minutes at 37° C., and then washed twice with M199 to remove residual acetylsalicylic acid) immediately prior to collagenase digestion. […] An hypoxic environment was administered by placing cells in a specially designed airtight chamber (Coy Laboratory Products, Ann Arbor, Mich.) with a normobaric environment comprised of 90% N2, 5% H2, 5% CO2, and 0% O2. pO2 s of 15 Torr in the culture medium were achieved by the use of a palladium catalyst in the chamber to reduce any residual O2. All manipulations, including centrifugation and washing of cells (up to the final aggregometry, or reoxygenation phases as described), were performed within the hypoxia chamber. Reoxygenation was accomplished by removing an aliquot of washed and counted HUVECs in suspension to room air for the indicated duration.
Platelets were challenged with graded doses of α-thrombin (Sigma) to determine the concentration that caused maximal platelet aggregation (0.3 u/mL in all cases), and this dose was used for all further studies. […] Interference with light absorption was measured for 3 minutes to obtain platelet aggregation curves, after which the cuvette contents were placed on ice, centrifuged at 5,000 rpm for 5 minutes at 4° C., and 200 μL of supernatant was recovered and counted in a liquid scintillation counter to quantify ^14 C-serotonin release. […] Results are expressed as both aggregometry curves and as % maximal serotonin release as defined by thrombin challenge in the absence of ECs.

[10] = tested on: nitric oxide in lung tissue; assay: ex vivo pulmonary NO with porphyrinic microsensor; parameters: species or system rat
Protocol: Direct measurement of pulmonary NO production was made using a porphyrinic microsensor^30 and differential pulse voltammetry. Pieces of rat lung of equal weight (40±4 mg) were harvested following 6 hrs of hypothermic preservation in LR alone, or 6 hrs of preservation followed by orthotopic transplantation and 30 minutes of reperfusion as described above. These pieces were placed in a vial containing 2 mL of LR and equilibrated to 37° C. under ambient conditions. Differential pulse voltammograms (current [proportional to NO concentration] versus potential) with pulse amplitude of 40 mV were obtained with a sensor placed on the tissue surface. A saturated calomel reference electrode (SCE) and platinum wire (auxiliary electrode) were immersed in the LR solution. The sensor is a working electrode at which oxidation of NO occurs, resulting in an electric current (which flows between working and auxiliary electrodes). The reference electrode is used to monitor the potential of the working electrode. NO concentrations measured ex vivo have been normalized, and are reported as per 40 mg of tissue. An aqueous NO solution prepared as previously described^31 was used to calibrate the sensor.

[11] = tested on: nitric oxide at lung surface; assay: in vivo pulmonary NO with porphyrinic microsensor; parameters: species or system rat
Protocol: Measurements of nitric oxide concentrations in vivo were performed with a two electrode system using a porphyrinic sensor as a working electrode and a platinum wire as an auxiliary/reference electrode. The porphyrinic sensor with a flexible base was lowered onto the exposed surface of the lung using a micromanipulator. A small piezoelectric signal (mechanically generated current) was used to indicate that the sensor had made contact with the tissue surface. NO measurements were begun once the flexible sensor assumed an L-shaped configuration on the tissue surface and the platinum wire was connected to adjacent tissue. Continous amperometric (current-time) measurements were obtained at a constant potential of 0.68 V, during the period of warm ischemia (after the lung was sewn in place but not yet reperfused) and continously as the vascular cross-clamp was released and reperfusion initiated. Topical application of the calcium ionophore (A23187, 9.5 μM; Sigma) and superoxide dismutase (100 U/ml; Sigma) was applied as monitoring was continued.

vascular smooth muscle = conditions: cited from earlier work
[12] = lung preserved 6 h in LR, no reimplantation

Compound: Nc1ncnc2c1nc(Br)n2[C@@H]1O[C@H](CO)[C@@H](O)[C@H]1O [8-bromoadenosine]
- effect on cardiac preservation (heart [1]; 12 h in LR): ineffective
- beneficial effect on cardiac preservation (heart [2]): no such beneficial effect

Compound: CCCOc1ccccc1-c1nc2[nH]nnc2c(=O)[nH]1 [M&B 22948, 2-o-propoxyphenyl-8-azapurin-6-one]
- effect on vasodilators (pulmonary vasculature): augments the pulmonary vasodilating effects of NO(cGMP)-dependent vasodilators, but not those of a cAMP-dependent vasodilator

Compound: CCCC(=O)[O-].[Na+] [butyrate, sodium butyrate]
- effect on cardiac preservation (heart [1]; 12 h in LR): consistently failed
- beneficial effect on cardiac preservation (heart [2]): no such beneficial effect

Compound: CCCC(=O)Nc1ncnc2c1ncn2[C@@H]1O[C@@H]2COP(=O)(O)O[C@H]2[C@H]1OC(=O)CCC [db-cAMP, N^6, O^2' -dibutyryl adenosine 3',5'monophosphate]
- graft blood flow ([3]; 12 h in LR, db-cAMP 2 mM vs LR alone): significant increase in blood flow
- fold increase in graft blood flow ([3]; vs without db-cAMP): 5.5 fold
- concentration for optimal/maximal preservation (heart [1]; 12 h in LR): 1 to 2 mM
- graft survival (heart [1]; 12 h preservation in LR): 90%
- MCC [4]: > 4 mM
- fold decrease in neutrophil infiltration / myeloperoxidase activity ([5]; 12 h, db-cAMP 2 mM in LR vs LR alone): 3.2 fold
- PMNs in blood vessel by histology ([5]; 12 h in LR, 10 min reperfusion, db-cAMP 2 mM where added): no PMNs

Compound: NNc1nncc2ccccc12 [hydralazine]
- effect on lung preservation (lung [6]): not proven beneficial in lung preservation
- pulmonary artery flushing time (lung [7]; 30 mL at constant pressure during harvest): 69.3 ± 4.5 s
- recipient survival (lung [7]; 6 h in EC, 30 min, supplements NTG 0.1 mg/mL, hydralazine 0.02 μg/mL): 33%

Compound: COc1ccc(C2CNC(=O)C2)cc1OC1CCCC1 (stereo not drawn) [rolipram]
- effect on cardiac preservation (heart [1]; 12 h in LR): uniformly enhanced preservation
- myocardial infarct size [8]: does not limit myocardial infarct size
- neutrophil superoxide production in vitro / no-reflow [8]: significantly reduces neutrophil production of superoxide in vitro

Compound: SOD: bovine erythrocyte superoxide dismutase
- effect on NO levels [9]: levels augmented
- effect on NO / platelet inhibition by ECs (HUVECs / platelets): restore NO levels
- fold increase in detectable NO with SOD ([10]; lung preserved 6 h in LR and reimplanted): ~ 25 fold
- NO concentration with SOD [10, 12]: 300 nM
- increase in NO with SOD [10, 12]: 50%
- increase in NO with SOD ([11]; normal lung): 10%
- local NO concentration with SOD ([11]; normal lung): 720 ± 110 nM
- NO level with SOD during reperfusion ([11]; preserved 6 h in LR, transplanted, from ~25 nM): ~ 40 nM

Compound: nitric oxide [NO]
- minimal concentration relaxing vascular smooth muscle (vascular smooth muscle): less than 15 nM
